# Measurements published in patent US8945929B2, “Marker for determination of sensitivity to anti-cancer agent” (Keio University, priority 2008, dated 2015).
# Counter-ions that a name gives are not always drawn.
# Experiments:
# [1] = system: cultured human colorectal cancer cells, HCT-116; experiment: Tumor size in nude mice with subcutaneously transplanted HCT-116 cells; type: in vivo, nude mice (BALB/cAJcl-nu/nu); conditions: 7 days after the administration
# Description: (§1) Six-week-old, male nude mice (BALB/cAJcl-nu/nu) purchased from CLEA Japan, Inc. were used and allowed to ingest a general feed and drink water freely in a thermostatic chamber. A protocol following the animal experiment guideline in School of Medicine, Keio University was applied and then approved. Then, this examination was carried out humanely.
# (§2) CAMPTO™ as a preparation of CPT-11 and a solvent for dissolving Campto (hereinafter, referred to as “solvent”) were obtained from Yakult Honsha, Co., Ltd.
# (§3) After the transplantation, a tumor size was measured by using the following formula: (longer tumor diameter)×(shorter tumor diameter)^2/2. When the tumor size reached 300 to 400 mm^3, the mice were randomly assigned to a CPT-11 administration group and a solvent administration group (a CPT-11 non-administration group). The day when the mice were assigned to two groups was defined as day 0. CAMPTO™ as a preparation of CPT-11 in an amount of 4.5 mL/kg (90 mg/kg as CPT-11 amount) and the solvent for dissolving CAMPTO™ (D-sorbitol, lactic acid, pH adjuster) were administered slowly to the CPT-11 administration group and a CPT-11 non-administration group, respectively, from the tail vein. The tumor size was measured on day 0, and 12 hours, 24 hours, 72 hours, and 7 days after the administration. The blood was collected after the dissection. After the centrifugation of the collected blood at 10,000 rpm for 10 minutes, a serum fraction was frozen with liquid nitrogen and stored at −80° C. until the serum fraction was used in preparation of a sample for metabolome analysis. As a control group, a cancer cell-non-transplanted group was produced and the same treatment was carried out.
# (§4) After the transplantation, a tumor size was measured by using the following formula: (longer tumor diameter)×(shorter tumor diameter)^2/2. When the tumor size reached 300 to 400 mm^3, the mice were randomly assigned to a CPT-11 administration group and a solvent administration group. The tumor size was measured on day 0, and 12 hours, 24 hours, 72 hours, and 7 days after the administration. […]
# [2] = system: cultured human colorectal cancer cells, HT-29; experiment: Tumor size in nude mice with subcutaneously transplanted HT-29 cells; type: in vivo, nude mice (BALB/cAJcl-nu/nu); conditions: conclusion from tumor size, 7 days after the administration
# Description: as §1, §2
# as §4, with “group (a CPT-11 non-administration group). The day when the mice were assigned to two groups was defined as day 0. […]” for “group.”
# After the transplantation, a tumor size was measured by using the following formula: (longer tumor diameter)×(shorter tumor diameter)^2/2. […] The tumor size was measured on day 0, and 12 hours, 24 hours, 72 hours, and 7 days after the administration. […]
# [3] = system: cultured human colorectal cancer cells, HCT-116; experiment: Serum metabolome (CE-TOFMS) of HCT-116 cancer-bearing mice after CPT-11; type: in vivo, nude mice (BALB/cAJcl-nu/nu); conditions: HCT-116 transplanted, 90 mg/kg as CPT-11
# Description: as §3, with “After the centrifugation of the collected blood at 10,000 rpm for 10 minutes, a serum fraction was frozen with liquid nitrogen and stored at −80° C. until the serum fraction was used in preparation of a sample for metabolome analysis. As a control group, a cancer cell-non-transplanted group was produced and the same treatment was carried out.” left out
# (§5) The comprehensive measurement of the metabolites in a serum was carried out by using a capillary electrophoresis time-of-flight mass spectrometry (CE-TOFMS) system manufactured by Agilent Technologies, Inc. In this examination, a voltage was applied such that an output of the capillary was a cathode, and cationic metabolites were comprehensively measured. […]
# [4] = system: cultured human colorectal cancer cells, HT-29; experiment: Serum metabolome (CE-TOFMS) of HT-29 cancer-bearing mice after CPT-11; type: in vivo, nude mice (BALB/cAJcl-nu/nu); conditions: HT-29 transplanted, 90 mg/kg as CPT-11
# Description: as §3, with “After the centrifugation of the collected blood at 10,000 rpm for 10 minutes, a serum fraction was frozen with liquid nitrogen and stored at −80° C. until the serum fraction was used in preparation of a sample for metabolome analysis. As a control group, a cancer cell-non-transplanted group was produced and the same treatment was carried out.” left out
# as §5
# [5] = system: cultured human colorectal cancer cells, HCT-116; conditions: HCT-116, as obtained from Yakult Honsha; cited from earlier work
# [6] = system: cultured human colorectal cancer cells, HT-29; conditions: HT-29, as obtained from Yakult Honsha; cited from earlier work
# [7] = background statement; cited from earlier work
# [8] = 12 hours after the administration
# [9] = 24 hours after the administration
structure (smiles),measurement,setting,value
"CCc1c2c(nc3ccc(OC(=O)N4CCC(N5CCCCC5)CC4)cc13)-c1cc3c(c(=O)n1C2)COC(=O)[C@]3(O)CC [CPT-11, Irinotecan hydrochloride]","tumor size, CPT-11 group with HCT-116 vs CPT-11 group with HT-29","[1]; 90 mg/kg as CPT-11, tail vein",significant difference (p=0.04979)
same,"tumor size, CPT-11 administration group vs solvent administration group","[1]; HCT-116 transplanted, 90 mg/kg as CPT-11, tail vein",significant difference (p=0.01319)
same,sensitivity of HCT-116 to CPT-11 compared to HT-29,[1]; conclusion from tumor size,high sensitivity
same,sensitivity of HT-29 to CPT-11 compared to HCT-116,[2],low sensitivity
same,"serum expression level of peak at m/z 104.070 (N,N-dimethyl glycine), CPT-11 administration group",[3]; [8],decreased to the same level as in the control group
same,"serum expression level of peak at m/z 166.086 (L-phenylalanine), CPT-11 administration group",[3]; [9],decreased to the same level as in the control group
same,"serum expression level of peak at m/z 104.070 (N,N-dimethyl glycine), CPT-11 group vs solvent group",[4]; [8],the same level
same,"serum expression level of peak at m/z 166.086 (L-phenylalanine), CPT-11 group vs solvent group",[4]; [9],the same level
"CCc1c2c(nc3ccc(O)cc13)-c1cc3c(c(=O)n1C2)COC(=O)[C@]3(O)CC [SN-38, 7-ethyl-10-hydroxycamptothecin]",sensitivity of cells to SN-38,[5],high sensitivity
same,sensitivity of cells to SN-38,[6],low sensitivity
CCc1c2c(nc3ccc(O[C@@H]4O[C@H](C(=O)O)[C@@H](O)[C@H](O)[C@H]4O)cc13)-c1cc3c(c(=O)n1C2)COC(=O)[C@]3(O)CC [SN-38G],cytotoxicity,[7],no cytotoxicity
